Laboratory results reported in ChEMBL document CHEMBL5614443, “Hybrids of 3-Hydroxypyridin-4(1H)-ones and Long-Chain 4-Aminoquinolines as Potent Biofilm Inhibitors of Pseudomonas aeruginosa Potentiate Tobramycin and Polymyxin B Activity” (J Med Chem, 2024).
Activity calls are given as the source filed them. The calls are words filed in the database; no cut-off is given here.

Columns and labels:
Pseudomonas aeruginosa [1] = test: Synergistic antibacterial activity against Pseudomonas aeruginosa clinical isolate 1167 assessed as reduction in bacterial viability at 10 to 50 uM incubated for 24 hrs in presence of 1/4 MIC of tobramycin by LB agar plate method; type: functional, organism-based; details: dose 10-50 µM
[2] = Inhibition of quorum sensing system in Pseudomonas aeruginosa PAO1 transfected with mini-ctx-rhlA-lacZ reporter gene assessed as decrease in beta-galactosidase activity incubated for 6 hrs by Miller assay; details: dose 1.25-20 µM
Pseudomonas aeruginosa [3] = test: Antivirulence activity in Pseudomonas aeruginosa clinical isolate 0815 assessed as reduction in elastase production at 10 uM incubated for 24 hrs by elastin-congo red dye based absorbance assay; type: functional, organism-based
[4] = Inhibition of quorum sensing system in Pseudomonas aeruginosa PAO1 transfected with mini-ctx-pqsA-lacZ reporter gene assessed as decrease in beta-galactosidase activity incubated for 6 hrs by Miller assay; details: dose 1.25-20 µM
Pseudomonas aeruginosa [5] = test: Antibacterial activity against Pseudomonas aeruginosa PAO1 infected in Caenorhabditis elegans assessed as worm survival at 10 uM by bright-field microscopic analysis (reference value: 24 hrs); type: functional
[6] = Inhibition of quorum sensing system in Pseudomonas aeruginosa PAO1 transfected with mini-ctx-lacZ reporter gene assessed as decrease in beta-galactosidase activity at 1.25 to 20 uM incubated for 6 hrs by Miller assay; details: dose 1.25-20 µM
Pseudomonas aeruginosa [7] = test: Synergistic antibacterial activity against Pseudomonas aeruginosa clinical isolate 1167 assessed as reduction in bacterial viability at 10 to 50 uM incubated for 24 hrs in presence of 1/4 MIC of polymyxin B by LB agar plate method; type: functional, organism-based; details: dose 10-50 µM
Pseudomonas aeruginosa [8] = test: Antibiofilm activity against Pseudomonas aeruginosa clinical isolate 0815 assessed as reduction in biofilm content at 10 uM incubated for 24 hrs by crystal violet staining based analysis; type: functional, organism-based
Pseudomonas aeruginosa [9] = test: Antibacterial activity against Pseudomonas aeruginosa clinical isolate 0617 assessed as inhibition of bacterial growth incubated for 24 hrs by CLSI protocol based method; type: functional, organism-based
Pseudomonas aeruginosa [10] = test: Synergistic antibacterial activity against Pseudomonas aeruginosa clinical isolate 1121 assessed as reduction in bacterial viability at 10 to 50 uM incubated for 24 hrs in presence of 1/8 MIC of polymyxin B by LB agar plate method; type: functional, organism-based; details: dose 10-50 µM
[11] = Inhibition of quorum sensing system in wildtype Pseudomonas aeruginosa PAO1 assessed as inhibition of pyocyanin production incubated for 24 hrs by absorbance based analysis
[12] = Inhibition of quorum sensing system in wildtype Pseudomonas aeruginosa PAO1 assessed as inhibition of elastase production incubated for 24 hrs by elastin-congo red dye based absorbance assay
Pseudomonas aeruginosa [13] = test: Synergistic antibacterial activity against Pseudomonas aeruginosa PAO1 assessed as reduction in cell viability at 10 to 50 uM incubated for 24 hrs in the presence of 1/2 MIC of tobramycin by LB agar plate method; type: functional, organism-based; details: dose 10-50 µM
Pseudomonas aeruginosa [14] = test: Inhibition of motility in Pseudomonas aeruginosa PAO1 assessed as reduction in swarming movements incubated for 16 hrs by motility assay; type: functional, organism-based; details: dose 1.25-50 µM
Pseudomonas aeruginosa [15] = test: Antibiofilm activity against Pseudomonas aeruginosa clinical isolate 1121 assessed as reduction in biofilm content at 10 uM incubated for 24 hrs by crystal violet staining based analysis; type: functional, organism-based
Pseudomonas aeruginosa [16] = test: Antibacterial activity against Pseudomonas aeruginosa clinical isolate FB assessed as inhibition of bacterial growth incubated for 24 hrs by CLSI protocol based method; type: functional, organism-based
Pseudomonas aeruginosa [17] = test: Synergistic antibacterial activity against Pseudomonas aeruginosa clinical isolate 0815 assessed as reduction in bacterial viability at 10 to 50 uM incubated for 24 hrs in presence of 1/8 MIC of tobramycin by LB agar plate method; type: functional, organism-based; details: dose 10-50 µM
Pseudomonas aeruginosa [18] = test: Synergistic antibacterial activity against Pseudomonas aeruginosa clinical isolate 1121 assessed as fold reduction in bacterial viability at 50 uM incubated for 24 hrs in presence of 1/2 MIC of tobramycin by LB agar plate method relative to tobramycin alone; type: functional
Pseudomonas aeruginosa [19] = test: Synergistic antibacterial activity against Pseudomonas aeruginosa PAO1 assessed as bacterial survival rate at 50 uM incubated for 24 hrs in presence of 1/2 MIC of tobramycin by LB agar plate method relative to control; type: functional
Pseudomonas aeruginosa [20] = test: Antibacterial activity against Pseudomonas aeruginosa PA14 assessed as inhibition of bacterial growth incubated for 24 hrs by CLSI protocol based method; type: functional, organism-based
[21] = Cytotoxicity against African green monkey Vero cells assessed as reduction in cell viability incubated for 24 hrs by MTT assay; type: toxicity, cell-based; details: chlorocebus sabaeus
Pseudomonas aeruginosa [22] = test: Induction of Fe3+ chelating activity in Pseudomonas aeruginosa PAO1 assessed as increase in pyoverdine production by measuring fold change at 20 uM incubated for 24 hrs by fluorescence microplate reader
[23] = Metal chelating activity assessed as Fe3+ chelation by measuring iron chelation constant by fluorescence competition assay
Pseudomonas aeruginosa [24] = test: Antibiofilm activity against Pseudomonas aeruginosa overexpressing fpvA assessed as inhibition of biofilm formation at 20 uM incubated for 24 hrs by crystal violet staining based analysis relative to control; type: functional
[25] = Inhibition of quorum sensing system in wildtype Pseudomonas aeruginosa PAO1 assessed as inhibition of rhamnolipid production incubated for 24 hrs by absorbance based microtiter plate reader analysis
Pseudomonas aeruginosa [26] = test: Inhibition of motility in Pseudomonas aeruginosa PAO1 assessed as reduction in twitching movements at 50 uM incubated for 16 hrs by motility assay; type: functional, organism-based
Pseudomonas aeruginosa [27] = test: Synergistic antibacterial activity against Pseudomonas aeruginosa PAO1 assessed as fold reduction in bacterial survival rate incubated for 24 hrs in presence of meropenem by LB agar plate method; type: functional
Pseudomonas aeruginosa [28] = test: Antibacterial activity against Pseudomonas aeruginosa PAO1 infected in Caenorhabditis elegans assessed as worm survival rate at 50 uM measured after 96 hrs in presence of polymyxin B at 1/2 MIC by bright field microscopic analysis relative to control; type: functional
Pseudomonas aeruginosa [29] = test: Synergistic antibacterial activity against Pseudomonas aeruginosa PAO1 assessed as reduction in cell viability at 10 to 50 uM incubated for 24 hrs in the presence of 1/8 MIC of tobramycin by LB agar plate method; type: functional, organism-based; details: dose 10-50 µM
Pseudomonas aeruginosa [30] = test: Synergistic antibacterial activity against Pseudomonas aeruginosa clinical isolate 1121 assessed as reduction in bacterial viability at 10 to 50 uM incubated for 24 hrs in presence of 1/8 MIC of tobramycin by LB agar plate method; type: functional, organism-based; details: dose 10-50 µM
Pseudomonas aeruginosa [31] = test: Induction of Fe3+ chelating activity in Pseudomonas aeruginosa PAO1 assessed as increase in pyochelin production at 2.5 to 50 uM incubated for 24 hrs by fluorescence microplate reader; details: dose 2.5-50 µM
Pseudomonas aeruginosa [32] = test: Synergistic antibacterial activity against Pseudomonas aeruginosa PAO1 assessed as reduction in cell viability at 10 to 50 uM incubated for 24 hrs in the presence of 1/8 MIC of polymyxin B by LB agar plate method; type: functional, organism-based; details: dose 10-50 µM
Pseudomonas aeruginosa [33] = test: Antibacterial activity against Pseudomonas aeruginosa PAO1 infected in Caenorhabditis elegans assessed as worm survival rate at 50 uM measured after 72 hrs in presence of tobramycin at 1/2 MIC by bright field microscopic analysis relative to control; type: functional
Pseudomonas aeruginosa [34] = test: Synergistic antibacterial activity against Pseudomonas aeruginosa PAO1 assessed as fold reduction in bacterial survival rate at 50 uM incubated for 24 hrs in presence of 1/2 MIC of […] by LB agar plate method relative to polymyxin B alone; type: functional

SMILES: Cc1cc(=O)c(O)c(C(=O)NCCCCCCCCNc2ccnc3cc(Cl)ccc23)n1C.Cl
- Activity (Pseudomonas aeruginosa [1]): Active
- inhibition [2]: Dose-Dependent Effect
- Activity (Pseudomonas aeruginosa [3]): Active
- inhibition [4]: Dose-Dependent Effect
- Survival (Pseudomonas aeruginosa [5]): 32 h
- inhibition [6]: inactive
- Activity (Pseudomonas aeruginosa [7]): Active
- Activity (Pseudomonas aeruginosa [8]): Active
- Activity (Pseudomonas aeruginosa [9]): inactive
- Activity (Pseudomonas aeruginosa [10]): Active
- IC50 [11]: 6.9 µM
- IC50 [12]: 16.7 µM
- Activity (Pseudomonas aeruginosa [13]): Active
- inhibition (Pseudomonas aeruginosa [14]): Dose-Dependent Effect
- Activity (Pseudomonas aeruginosa [15]): Active
- Activity (Pseudomonas aeruginosa [16]): inactive
- Activity (Pseudomonas aeruginosa [17]): Active
- fold change (FC) (Pseudomonas aeruginosa [18]): 15
- survival at 50 µM (Pseudomonas aeruginosa [19]): < 0.2%
- Activity (Pseudomonas aeruginosa [20]): inactive
- CC50 at 24 h [21]: > 800 µM
- fold change (FC) (Pseudomonas aeruginosa [22]): 10
- pFe3+ [23]: 20.6
- inhibition at 20 µM (Pseudomonas aeruginosa [24]): ~30%
- IC50 [25]: 39.2 µM
- inhibition (Pseudomonas aeruginosa [26]): Active
- fold change (FC) (Pseudomonas aeruginosa [27]): <10
- survival at 50 µM (Pseudomonas aeruginosa [28]): 91.2%
- Activity (Pseudomonas aeruginosa [29]): Active
- Activity (Pseudomonas aeruginosa [30]): Active
- Activity (Pseudomonas aeruginosa [31]): inactive
- Activity (Pseudomonas aeruginosa [32]): Active
- survival at 50 µM (Pseudomonas aeruginosa [33]): 81.5%
- fold change (FC) (Pseudomonas aeruginosa [34]): ~100
